Data as given in patent US10344060B2 (priority 2013, dated 2019).

What was measured:
hNav1.7 [1] = molecular target: T1, hNav1.7 (Homo sapiens, UniProt Q15858); assay: cell-based; details: ratio of IonWorks Quattro IC50 values
hNav1.7 [2] = molecular target: T1, hNav1.7; assay: cell-based; assay type: cell-based; details: ratio of PX tonic IC50 values; Table 11

T1 sequence (Q15858 whole entry): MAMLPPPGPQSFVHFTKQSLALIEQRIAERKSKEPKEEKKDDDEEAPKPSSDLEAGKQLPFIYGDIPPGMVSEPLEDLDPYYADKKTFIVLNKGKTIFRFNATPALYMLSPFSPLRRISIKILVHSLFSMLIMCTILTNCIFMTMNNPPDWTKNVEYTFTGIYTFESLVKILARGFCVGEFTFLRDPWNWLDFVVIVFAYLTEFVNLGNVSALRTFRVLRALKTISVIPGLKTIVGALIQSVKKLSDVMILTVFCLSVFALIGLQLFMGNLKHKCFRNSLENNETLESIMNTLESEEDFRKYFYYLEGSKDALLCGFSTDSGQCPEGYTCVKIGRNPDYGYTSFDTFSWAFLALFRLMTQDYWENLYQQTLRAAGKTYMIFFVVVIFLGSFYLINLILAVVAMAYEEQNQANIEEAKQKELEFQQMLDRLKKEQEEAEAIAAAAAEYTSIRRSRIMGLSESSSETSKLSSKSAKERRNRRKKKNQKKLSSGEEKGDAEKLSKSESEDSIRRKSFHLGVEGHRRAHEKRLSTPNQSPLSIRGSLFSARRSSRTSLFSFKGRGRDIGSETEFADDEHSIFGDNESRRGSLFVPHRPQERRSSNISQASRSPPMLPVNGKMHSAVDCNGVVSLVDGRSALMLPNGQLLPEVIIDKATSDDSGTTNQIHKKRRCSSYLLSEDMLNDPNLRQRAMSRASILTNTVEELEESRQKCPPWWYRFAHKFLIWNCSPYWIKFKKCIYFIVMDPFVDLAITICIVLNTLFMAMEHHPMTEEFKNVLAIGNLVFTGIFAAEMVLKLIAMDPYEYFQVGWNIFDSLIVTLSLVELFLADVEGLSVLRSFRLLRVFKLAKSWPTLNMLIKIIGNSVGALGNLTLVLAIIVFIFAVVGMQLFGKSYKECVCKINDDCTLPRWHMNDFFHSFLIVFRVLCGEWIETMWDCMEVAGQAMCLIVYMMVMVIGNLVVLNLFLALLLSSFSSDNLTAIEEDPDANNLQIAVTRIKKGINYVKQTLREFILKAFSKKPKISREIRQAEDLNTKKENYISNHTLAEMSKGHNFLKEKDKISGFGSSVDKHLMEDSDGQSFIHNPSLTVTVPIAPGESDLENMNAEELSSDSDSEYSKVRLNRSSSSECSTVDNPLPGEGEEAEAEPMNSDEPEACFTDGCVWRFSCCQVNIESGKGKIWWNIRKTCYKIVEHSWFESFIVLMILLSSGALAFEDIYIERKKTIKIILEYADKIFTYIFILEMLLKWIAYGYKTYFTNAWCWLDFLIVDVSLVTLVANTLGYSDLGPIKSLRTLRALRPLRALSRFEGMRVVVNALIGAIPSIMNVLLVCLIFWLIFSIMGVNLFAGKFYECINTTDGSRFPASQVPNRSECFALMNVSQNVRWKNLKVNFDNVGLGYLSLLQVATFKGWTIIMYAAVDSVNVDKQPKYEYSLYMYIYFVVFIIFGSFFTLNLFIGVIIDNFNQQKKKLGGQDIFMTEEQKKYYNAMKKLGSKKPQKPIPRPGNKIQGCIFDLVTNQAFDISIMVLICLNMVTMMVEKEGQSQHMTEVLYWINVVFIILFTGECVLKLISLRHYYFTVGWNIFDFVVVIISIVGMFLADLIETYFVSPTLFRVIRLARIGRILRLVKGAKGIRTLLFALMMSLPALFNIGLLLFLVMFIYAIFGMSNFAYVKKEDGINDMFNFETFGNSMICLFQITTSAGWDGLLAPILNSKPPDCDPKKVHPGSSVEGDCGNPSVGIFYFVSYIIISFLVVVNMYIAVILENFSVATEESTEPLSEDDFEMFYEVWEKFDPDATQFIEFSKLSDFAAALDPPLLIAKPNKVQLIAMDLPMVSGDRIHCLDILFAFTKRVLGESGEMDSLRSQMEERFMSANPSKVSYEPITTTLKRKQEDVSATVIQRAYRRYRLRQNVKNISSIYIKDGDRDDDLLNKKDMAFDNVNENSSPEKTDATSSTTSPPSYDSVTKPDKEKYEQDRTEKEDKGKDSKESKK

| SMILES | Nav1.4/Nav1.7 (hNav1.7 [1]; Nav1.4 over Nav1.7) | Nav1.4/Nav1.7 (hNav1.7 [2]) | Nav1.5/Nav1.7 (hNav1.7 [2]) | Nav1.4/Nav1.7 (hNav1.7 [1]; Table 8) |
| --- | --- | --- | --- | --- |
| CC[C@H](C)[C@H](NC(=O)[C@@H](NC(=O)[C@H](CCCCN)NC(=O)[C@H](CCCNC(=N)N)NC(=O)[C@@H]1CSSC[C@@H]2NC(=O)[C@H](C)NC(=O)[C@H](CCCNC(=N)N)NC(=O)[C@H](CCCCN)NC(=O)[C@H](CO)NC(=O)[C@H](CC(=O)O)NC(=O)[C@@H]3CSSC[C@H](NC(=O)CNC(=O)[C@H](CC(C)C)NC(=O)CNC(=O)[C@H](CCC(=O)O)NC(=O)[C@H](CSSC[C@H](NC(=O)[C@@H](N)Cc4ccc(O)cc4)C(=O)N[C@@H](CCC(N)=O)C(=O)N[C@@H](CCCCN)C(=O)N[C@@H](Cc4c[nH]c5ccccc45)C(=O)N[C@@H](CCSC)C(=O)N[C@@H](Cc4c[nH]c5ccccc45)C(=O)N[C@@H]([C@@H](C)O)C(=O)N3)NC2=O)C(=O)N[C@@H](CCCCN)C(=O)N[C@@H](CC(C)C)C(=O)N[C@@H](Cc2c[nH]c3ccccc23)C(=O)N1)[C@@H](C)CC)C(N)=O [compound 121] | 29 | 25 | 1808 |  |
| CC[C@H](C)[C@H](NC(=O)[C@@H](NC(=O)[C@H](CCCCN)NC(=O)[C@H](CCCNC(=N)N)NC(=O)[C@@H]1CSSC[C@@H]2NC(=O)[C@H](C)NC(=O)[C@H](CCCNC(=N)N)NC(=O)[C@H](CCCCN)NC(=O)[C@H](CO)NC(=O)[C@H](CC(=O)O)NC(=O)[C@@H]3CSSC[C@H](NC(=O)[C@H](CCC(=O)O)NC(=O)[C@H](CC(C)C)NC(=O)CNC(=O)[C@H](CCC(=O)O)NC(=O)[C@H](CSSC[C@H](NC(=O)[C@@H](N)Cc4ccc(O)cc4)C(=O)N[C@@H](CCC(N)=O)C(=O)N[C@@H](CCCCN)C(=O)N[C@@H](Cc4c[nH]c5ccccc45)C(=O)N[C@@H](CCSC)C(=O)N[C@@H](Cc4c[nH]c5ccccc45)C(=O)N[C@@H]([C@@H](C)O)C(=O)N3)NC2=O)C(=O)N[C@@H](CCCCN)C(=O)N[C@@H](CC(C)C)C(=O)N[C@@H](Cc2c[nH]c3ccccc23)C(=O)N1)C(C)C)C(N)=O [compound 133] | 51 | 320 | 1341 |  |
| CSCC[C@@H]1NC(=O)[C@H](Cc2c[nH]c3ccccc23)NC(=O)[C@H](CCCCN)NC(=O)[C@H](CCC(N)=O)NC(=O)[C@@H](NC(=O)[C@@H](N)Cc2ccc(O)cc2)CSSC[C@@H]2NC(=O)[C@@H]3CSSC[C@@H](C(=O)N[C@@H](CCCNC(=N)N)C(=O)N[C@@H](CCCCN)C(=O)N[C@@H](Cc4ccc(O)cc4)C(=O)N[C@@H](Cc4cccc5ccccc45)C(N)=O)NC(=O)[C@H](Cc4c[nH]c5ccccc45)NC(=O)[C@H](CC(C)C)NC(=O)[C@H](CCCCN)NC(=O)[C@H](CSSC[C@H](NC(=O)[C@H]([C@@H](C)O)NC(=O)[C@H](Cc4c[nH]c5ccccc45)NC1=O)C(=O)N[C@@H](CC(=O)O)C(=O)N[C@@H](CO)C(=O)N[C@@H](CCCCN)C(=O)N[C@@H](CCCNC(=N)N)C(=O)N[C@@H](C)C(=O)N3)NC(=O)[C@H](CCC(=O)O)NC(=O)[C@H](CC(C)C)NC(=O)CNC(=O)[C@H](CCC(=O)O)NC2=O [compound 232] |  | 372 | 480 | 91 |
| CC[C@H](C)[C@H](NC(=O)[C@H](Cc1ccc(C(=O)O)cc1)NC(=O)[C@H](CCCCN)NC(=O)[C@H](CCCNC(=N)N)NC(=O)[C@@H]1CSSC[C@@H]2NC(=O)[C@H](C)NC(=O)[C@H](CCCNC(=N)N)NC(=O)[C@H](CCCCN)NC(=O)[C@H](CO)NC(=O)[C@H](CC(=O)O)NC(=O)[C@@H]3CSSC[C@H](NC(=O)[C@H](CCC(=O)O)NC(=O)[C@H](CC(C)C)NC(=O)CNC(=O)[C@H](CCC(=O)O)NC(=O)[C@H](CSSC[C@H](NC(=O)[C@@H](N)Cc4ccc(O)cc4)C(=O)N[C@@H](CCC(N)=O)C(=O)N[C@@H](CCCCN)C(=O)N[C@@H](Cc4c[nH]c5ccccc45)C(=O)N[C@@H](CCSC)C(=O)N[C@@H](Cc4c[nH]c5ccccc45)C(=O)N[C@@H]([C@@H](C)O)C(=O)N3)NC2=O)C(=O)N[C@@H](CCCCN)C(=O)N[C@@H](CC(C)C)C(=O)N[C@@H](Cc2c[nH]c3ccccc23)C(=O)N1)C(N)=O [compound 127] | 2 |  |  |  |
| CCC[C@@H]1NC(=O)[C@H](CC(C)C)NC(=O)CNC(=O)[C@H](CCC(=O)O)NC(=O)[C@@H]2CSSC[C@H](NC(=O)[C@@H](N)Cc3ccc(O)cc3)C(=O)N[C@@H](CCC(N)=O)C(=O)N[C@@H](CCCCN)C(=O)N[C@@H](Cc3c[nH]c4ccccc34)C(=O)N[C@@H](CCSC)C(=O)N[C@@H](Cc3c[nH]c4ccccc34)C(=O)N[C@@H]([C@@H](C)O)C(=O)N[C@H]3CSSC[C@H](NC1=O)C(=O)N[C@@H](CCCCN)C(=O)N[C@@H](CC(C)C)C(=O)N[C@@H](Cc1c[nH]c4ccccc14)C(=O)N[C@H](C(=O)N[C@@H](CCCNC(=N)N)C(=O)N[C@@H](CCCCN)C(=O)N[C@H](C(=O)N[C@H](C(N)=O)[C@@H](C)CC)[C@@H](C)CC)CSSC[C@H](NC(=O)[C@H](C)NC(=O)[C@H](CCCNC(=N)N)NC(=O)[C@H](CCCCN)NC(=O)[C@H](CO)NC(=O)[C@H](CC(=O)O)NC3=O)C(=O)N2 [compound 123] | 19 |  |  |  |
| CC[C@H](C)[C@H](NC(=O)[C@@H](NC(=O)[C@H](CCCCN)NC(=O)[C@H](CCCNC(=N)N)NC(=O)[C@@H]1CSSC[C@@H]2NC(=O)[C@H](C)NC(=O)[C@H](CCCNC(=N)N)NC(=O)[C@H](CCCCN)NC(=O)[C@H](CO)NC(=O)[C@H](CC(=O)O)NC(=O)[C@@H]3CSSC[C@H](NC(=O)[C@H](Cc4ccc(C(=O)O)cc4)NC(=O)[C@H](CC(C)C)NC(=O)CNC(=O)[C@H](CCC(=O)O)NC(=O)[C@H](CSSC[C@H](NC(=O)[C@@H](N)Cc4ccc(O)cc4)C(=O)N[C@@H](CCC(N)=O)C(=O)N[C@@H](CCCCN)C(=O)N[C@@H](Cc4c[nH]c5ccccc45)C(=O)N[C@@H](CCSC)C(=O)N[C@@H](Cc4c[nH]c5ccccc45)C(=O)N[C@@H]([C@@H](C)O)C(=O)N3)NC2=O)C(=O)N[C@@H](CCCCN)C(=O)N[C@@H](CC(C)C)C(=O)N[C@@H](Cc2c[nH]c3ccccc23)C(=O)N1)[C@@H](C)CC)C(N)=O [compound 114] | 24 |  |  |  |
| CC[C@H](C)[C@H](NC(=O)[C@@H](NC(=O)[C@H](CCCCN)NC(=O)[C@H](CCCNC(=N)N)NC(=O)[C@@H]1CSSC[C@@H]2NC(=O)[C@H](C)NC(=O)[C@H](CCCNC(=N)N)NC(=O)[C@H](CCCCN)NC(=O)[C@H](CO)NC(=O)[C@H](CC(=O)O)NC(=O)[C@@H]3CSSC[C@H](NC(=O)[C@H](CCCNC(N)=O)NC(=O)[C@H](CC(C)C)NC(=O)CNC(=O)[C@H](CCC(=O)O)NC(=O)[C@H](CSSC[C@H](NC(=O)[C@@H](N)Cc4ccc(O)cc4)C(=O)N[C@@H](CCC(N)=O)C(=O)N[C@@H](CCCCN)C(=O)N[C@@H](Cc4c[nH]c5ccccc45)C(=O)N[C@@H](CCSC)C(=O)N[C@@H](Cc4c[nH]c5ccccc45)C(=O)N[C@@H]([C@@H](C)O)C(=O)N3)NC2=O)C(=O)N[C@@H](CCCCN)C(=O)N[C@@H](CC(C)C)C(=O)N[C@@H](Cc2c[nH]c3ccccc23)C(=O)N1)[C@@H](C)CC)C(N)=O [compound 122] | 15 |  |  |  |
| CC[C@H](C)[C@H](NC(=O)[C@H](CC(C)C)NC(=O)[C@H](CCCCN)NC(=O)[C@H](CCCNC(=N)N)NC(=O)[C@@H]1CSSC[C@@H]2NC(=O)[C@H](C)NC(=O)[C@H](CCCNC(=N)N)NC(=O)[C@H](CCCCN)NC(=O)[C@H](CO)NC(=O)[C@H](CC(=O)O)NC(=O)[C@@H]3CSSC[C@H](NC(=O)[C@H](CCC(=O)O)NC(=O)[C@H](CC(C)C)NC(=O)CNC(=O)[C@H](CCC(=O)O)NC(=O)[C@H](CSSC[C@H](NC(=O)[C@@H](N)Cc4ccc(O)cc4)C(=O)N[C@@H](CCC(N)=O)C(=O)N[C@@H](CCCCN)C(=O)N[C@@H](Cc4c[nH]c5ccccc45)C(=O)N[C@@H](CCSC)C(=O)N[C@@H](Cc4c[nH]c5ccccc45)C(=O)N[C@@H]([C@@H](C)O)C(=O)N3)NC2=O)C(=O)N[C@@H](CCCCN)C(=O)N[C@@H](CC(C)C)C(=O)N[C@@H](Cc2c[nH]c3ccccc23)C(=O)N1)C(N)=O [compound 132] | 12 |  |  |  |
| CC[C@H](C)[C@H](NC(=O)[C@@H](NC(=O)[C@H](CCCCN)NC(=O)[C@H](CCCNC(=N)N)NC(=O)[C@@H]1CSSC[C@@H]2NC(=O)[C@H](C)NC(=O)[C@H](CCCNC(=N)N)NC(=O)[C@H](CCCCN)NC(=O)[C@H](CO)NC(=O)[C@H](CC(=O)O)NC(=O)[C@@H]3CSSC[C@H](NC(=O)[C@H]([C@@H](C)CC)NC(=O)[C@H](CC(C)C)NC(=O)CNC(=O)[C@H](CCC(=O)O)NC(=O)[C@H](CSSC[C@H](NC(=O)[C@@H](N)Cc4ccc(O)cc4)C(=O)N[C@@H](CCC(N)=O)C(=O)N[C@@H](CCCCN)C(=O)N[C@@H](Cc4c[nH]c5ccccc45)C(=O)N[C@@H](CCSC)C(=O)N[C@@H](Cc4c[nH]c5ccccc45)C(=O)N[C@@H]([C@@H](C)O)C(=O)N3)NC2=O)C(=O)N[C@@H](CCCCN)C(=O)N[C@@H](CC(C)C)C(=O)N[C@@H](Cc2c[nH]c3ccccc23)C(=O)N1)[C@@H](C)CC)C(N)=O [compound 118] | 15 |  |  |  |
| CCC[C@@H]1NC(=O)[C@H](Cc2c[nH]c3ccccc23)NC(=O)[C@H](CCCCN)NC(=O)[C@H](CCC(N)=O)NC(=O)[C@@H](NC(=O)[C@@H](N)Cc2ccc(O)cc2)CSSC[C@@H]2NC(=O)[C@@H]3CSSC[C@@H](C(=O)N[C@@H](CCCNC(=N)N)C(=O)N[C@@H](CCCCN)C(=O)N[C@H](C(=O)N[C@H](C(N)=O)[C@@H](C)CC)[C@@H](C)CC)NC(=O)[C@H](Cc4c[nH]c5ccccc45)NC(=O)[C@H](CC(C)C)NC(=O)[C@H](CCCCN)NC(=O)[C@H](CSSC[C@H](NC(=O)[C@H]([C@@H](C)O)NC(=O)[C@H](Cc4c[nH]c5ccccc45)NC1=O)C(=O)N[C@@H](CC(=O)O)C(=O)N[C@@H](CO)C(=O)N[C@@H](CCCCN)C(=O)N[C@@H](CCCNC(=N)N)C(=O)N[C@@H](C)C(=O)N3)NC(=O)[C@H](CCC(=O)O)NC(=O)[C@H](CC(C)C)NC(=O)CNC(=O)[C@H](CCC(=O)O)NC2=O [compound 111] | 7 |  |  |  |
